Assay type in all cases: cell-based
One test has as its system any organism tested. In words: Synergy index test, summary statements over the organisms tested. As to conditions: for Synergy of biocide paired with surfactant: against any organism tested; for ratio of surfactant to biocide where synergy was observed: not commercially relevant (less biocide relative to surfactant). How it is done:
Surfactants and biocides were evaluated for synergy by determining the synergy index (S.I.) of the combination. Synergy index was calculated based on minimum inhibitory concentrations (MIC) of two antimicrobial compounds (A and B) alone and in combinations. The tests organisms were Gram negative bacteria (Pseudomonas aeruginosa ATCC #15442), Gram positive bacteria (Staphylococcus aureus ATCC #6538), yeast (Candida albicans ATCC#10203) and mold (Aspergillus niger ATCC#16404). Contact time for the bacteria was 24 and 48 hours, yeast was 48 and 72 hrs, and 3 and 7 days for mold. The test was carried out in 96 well microtiter plates. R^1O(CH2CH(CH3)O)5(CH2CH2O)9H, Surf. A where R^1 is 2-ethylhexyl R^2O(CH2CH(CH3)O)3(CH2CH2O)5H Surf. D R^2O(CH2CH(CH3)O)3(CH2CH2O)7H Surf. E In Surf. D and Surf. E, R^2 is a mixture of C8-C14 linear alkyl groups (70% C8-C10 linear alkyl and 30% C12-C14 linear alkyl)
SI is calculated as follows: Ca/CA+Cb/CB=Synergy Index (“SI”)
Wherein: • CA=concentration of compound A in ppm, acting alone, which produced an end point (MIC of Compound A). • Ca=concentration of compound A in ppm, in the mixture, which produced an end point. • CB=concentration of compound B in ppm, acting alone, which produced an end point (MIC of Compound B). • Cb=concentration of compound B in ppm, in the mixture, which produced an end point. When the sum of Ca/CA and Cb/CB is greater than one, antagonism is indicated.

Test [1] relates to Staphylococcus aureus ATCC #6538. In words: MIC / synergy index test in 96 well microtiter plates, Gram positive bacteria. As to conditions: for CB (MIC of compound B acting alone): S. aureus ATCC# 6538, 24 hrs. How it is done: (§1) Surfactants and biocides were evaluated for synergy by determining the synergy index (S.I.) of the combination. Synergy index was calculated based on minimum inhibitory concentrations (MIC) of two antimicrobial compounds (A and B) alone and in combinations. The tests organisms were Gram negative bacteria (Pseudomonas aeruginosa ATCC #15442), Gram positive bacteria (Staphylococcus aureus ATCC #6538), yeast (Candida albicans ATCC#10203) and mold (Aspergillus niger ATCC#16404). Contact time for the bacteria was 24 and 48 hours, yeast was 48 and 72 hrs, and 3 and 7 days for mold. The test was carried out in 96 well microtiter plates. […] E In Surf. D and Surf. […] [table] […] SI is calculated as follows: Ca/CA+Cb/CB=Synergy Index (“SI”) Wherein: • CA=concentration of compound A in ppm, acting alone, which produced an end point (MIC of Compound A). • Ca=concentration of compound A in ppm, in the mixture, which produced an end point. • CB=concentration of compound B in ppm, acting alone, which produced an end point (MIC of Compound B). • Cb=concentration of compound B in ppm, in the mixture, which produced an end point. When the sum of Ca/CA and Cb/CB is greater than one, antagonism is indicated.

Test [2] has as its system Pseudomonas aeruginosa ATCC #15442. In words: MIC / synergy index test in 96 well microtiter plates, Gram negative bacteria. How it is done: as §1
For test [3], the system named is Aspergillus niger ATCC#16404. Put plainly: MIC / synergy index test in 96 well microtiter plates, mold. The settings on record: A. niger ATCC#16404, 3rd day, Media PDB; for MIC: Aspergillus niger, ATCC16404, read-out: CB (MIC of compound B acting alone), B: Potassium Sorbate. How it is done: as §1
Test [4] deals with Candida albicans ATCC#10203. In words: MIC / synergy index test in 96 well microtiter plates, yeast. As to conditions: for MIC: Candida albicans, ATCC10203, 48 h. How it is done:
as §1

11 molecules from US9675064B2, “Microbicidal composition” (Dow Global Technologies LLC, priority 2013, dated 2017) can be followed below.

SMILES strings stand for the structures. Like-named read-outs stand apart in the source and are kept apart here.

For `CCC12COCN1COC2` [CS-1246], the “Synergy of biocide paired with surfactant” value (“Synergy of biocide paired” below) in the test with any organism tested (paired with Surf. D) is given as “no synergy”.
Regarding `CCCCCCCCCC[N+](C)(C)CCCCCCCCCC.[Cl-]` [DIDAC], the “ratio of surfactant to biocide where synergy was observed” value (shortened to “ratio of surfactant”) in the test with any organism tested (combination with Surf. A) and with any organism tested (combination with Surf. D) was 1:0.2 or greater throughout.
Consider `CC1(C)C(=O)N(CO)C(=O)N1CO` [DMDMH], for which the “Synergy of biocide paired” value in the test with any organism tested (paired with Surf. D) and in the test on any organism tested (paired with Surf. E) was “no synergy” in each case.
Consider `CCCCNC(=O)OCC#CI` [IPBC], for which the “ratio of surfactant” value in the test on any organism tested (combination with Surf. A) is 1:0.2 or greater; with any organism tested (combination with Surf. D) it was 1:0.05 or worse; with any organism tested (combination with Surf. E), 1:0.2 or greater.
Consider `Cn1sc2ccccc2c1=O` [MBIT], for which the “ratio of surfactant” value with any organism tested (combination with Surf. D) was 1:0.05 or worse.
`CCCCCCCCn1sccc1=O` [OIT]: the “ratio of surfactant” value with any organism tested (combination with Surf. D) and in the test with any organism tested (combination with Surf. E) was 1:0.2 or greater throughout.
Regarding `Oc1ccccc1-c1ccccc1` [OPP], in the test with any organism tested (paired with Surf. D), the “Synergy of biocide paired” value was “no synergy”.
For the molecule `C/C=C/C=C/C(=O)[O-].[K+]` [Potassium Sorbate], in test [1] (B: Potassium Sorbate, Media 1/10TSB, inoculum 1.808E+06 CFU/ml), the “CB (MIC of compound B acting alone)” value was determined as 30000 ppm. Further, the MIC in test [1] (Staphylococcus aureus, ATCC6538, 24 h, read-out: CB (MIC of compound B acting alone)) was 30000 µg/mL; in test [2] (Pseudomonas aeruginosa, ATCC15442, 24 h, read-out: CB (MIC of compound B acting alone)) it was 15000 µg/mL; in test [3] (inoculum 1.156E+06 (table with Surf. D)), 6000 µg/mL; in test [3] (inoculum 1.156E+06 CFU/ml (table with Surf. A)), 1000 µg/mL; in test [3] (inoculum 1.156E+06 CFU/ml (table with Surf. E)), 1000 µg/mL; in test [4] (read-out: CB (MIC of compound B acting alone), B: Potassium Sorbate, C. albicans ATCC#10203, Media PDB, inoculum 1.156E+06 CFU/ml), 800 µg/mL. In addition, the MIC was 600 µg/mL in test [4] (read-out: CB (MIC of compound B acting alone), B: Potassium Sorbate, C. albicans ATCC#10203, Media PDB, inoculum 1.808E+06 CFU/ml) and 1200 µg/mL in test [4] (read-out: CB (MIC of compound B acting alone), B: Potassium Sorbate, C. albicans ATCC#10203, Media PDB, inoculum 5.726E+05 CFU/ml).
With `O=C([O-])c1ccccc1.[Na+]` [Sodium Benzoate], the “CB (MIC of compound B acting alone)” value in test [1] (B: Sodium Benzoate, Media 1/10 TSB, inoculum 1.808E+05) is listed as 30000 ppm; in test [1] (B: Sodium benzoate, Media 1/10TSB, inoculum 1.808E+06 CFU/ml), 30000 ppm; in test [2] (B: Sodium Benzoate, Ps. aeruginosa ATCC#15442, 48 hrs, Media 1/10TSB, inoculum 5.727E+07 CFU/ml), 14991 ppm; in test [3] (B: Sodium Benzoate, inoculum 1.156E+06), 5998 ppm; in test [4] (B: Sodium Benzoate, C. albicans ATCC#10203, 48 hrs, Media PDB, inoculum 5.726E+05 CFU/ml) it was 1200 ppm. Besides, the “Synergy of biocide paired” value with any organism tested (paired with Surf. A) is “no synergy”.
As to `O=[N+]([O-])C(CO)(CO)CO` [TRIS NITRO], the “Synergy of biocide paired” value in the test on any organism tested (paired with Surf. A) is on record as “no synergy”.
Consider `CCCCCCCCCCCCCC[P+](CCCC)(CCCC)CCCC.[Cl-]` [TTPC], for which the “ratio of surfactant” value with any organism tested (combination with Surf. E) is reported as 1:0.2 or greater.
